Entries after “also recorded” stand apart in the source; their conditions may differ. Residues, ends and D or L forms follow the SMILES beside them.
Key:
Aβ aggregation = conditions: cited from earlier work; for Aβ aggregation and toxicity: ref Cheng et al., 2012
Text: (§1) In recent years, through the emergence of peptides that inhibit the aggregation of Aβ, extensive research has been conducted on peptides for the treatment of Alzheimer’s disease. However, these peptides have high specificity and low toxicity, which will make them candidate drugs for peptide inhibitors against Aβ aggregation ([Fosgerau and Hoffmann, 2015]). Peptides designed by computer simulation and applied to Alzheimer’s disease are becoming more and more popular and welcomed by researchers. At present, the peptide inhibitors of Aβ aggregation include LVFF, KLVFF, KLVFF modified peptide (QKL ...

Aβ1–42 oligomerization = conditions: ref Takahashi and Mihara, 2008, cited from earlier work
Text: as §1

[1] = system: rat primary cortical neurons; design: method as in Pradhan et al., 2019; conditions: ref Pradhan et al., 2019; cited from earlier work
PC12 cells [2] = conditions: cited from earlier work
Text: Abnormally precipitated Aβ in amyloid plaques becomes one of the hallmark proteins of brain nerve damage in AD patients, and promotes the deterioration of AD. The accumulation of Aβ protein is caused by the interaction between the hydrophobic center and the C-terminal molecule ([Kapadia et al., 2021]). At present, the development of anti-Aβ aggregation compounds is a promising approach in the treatment of AD, and many clinical trials are ongoing. […] However, these peptides have high specificity and low toxicity, which will make them candidate drugs for peptide inhibitors against Aβ aggregation ([Fosgerau and Hoffmann, 2015]). Peptides designed by computer simulation and applied to Alzheimer’s disease are becoming more and more popular and welcomed by researchers. At present, the peptide inhibitors of Aβ aggregation include LVFF, KLVFF, KLVFF modified peptide (QKL ...

PC12 cells [3] = type: cell-based, Rat
Experimental: Pipette the cultured cells in a cell culture flask repeatedly to make them evenly distributed. Use a pipete to pipete 10 μL of cell suspension and transfer to a cell counting plate for counting. Count under a microscope to calculate the number of living cells distributed in a large square composed of 16 squares on the cytometer. Cell density (pcs / mL) = (sum of cell count/4) × 10^4 Calculate the cell concentration, repeat counting 2–3 times for each sample (the value should not be too different each time, otherwise the operation should be repeated). If there are less than 5 cells in each large square, you need to re-centrifuge to adjust the cell concentration.
Use CCK-8 kit to detect cell viability, reflecting the cytotoxicity of peptide inhibitors themselves. The counted PC12 cells were plated at 100 μL/well (8 × 10^4 cells/well). After put the 96-well plate at 37°C for 12 h, discard the medium, add 100 μL of medium containing different concentrations of peptide inhibitors to each well, and continue to culture 24 h. […] The wells with DMEM medium solution containing no peptide inhibitors but containing cells were used as the control group.
Cell Viability(%)=ODadministration group−[…]ODcontrol group−ODblank group×100%

Aβ1–42 aggregation = experiment: ThT fluorescence, inhibition of Aβ1–42 aggregation; type: biochemical, Human; conditions: for ThT fluorescence intensity vs Aβ group: PBS, ex 440/em 480 nm
Experimental: ThT is a chemical fluorescent dye. […] Based on this fluorescence phenomenon, ThT is used as a kind of fluorescent indicator to detect the degree of aggregation of Aβ.
Take about 10 μL of the sample, dilute it 20 times with ThT solution, and read the fluorescence intensity value with a microplate reader, 440 nm is the excitation wavelength, and 480 nm is the emission wavelength, and the bandwidth is 5 nm. […] The sample was repeated five times and the average value was taken.

Aβ1–42 = biological target: T1, Aβ1–42 (Homo sapiens, UniProt P05067); experiment: SPR affinity of peptide and Aβ1–42; type: binding; conditions: for Binding ability ranking by KD / Binding phase of SPR kinetic curve / Dissociation phase of SPR kinetic curve: SPR, qualitative
T1 construct: purchased GL Biochem Ltd. (Shanghai)
T1 sequence (P05067 672-713 limits assumed): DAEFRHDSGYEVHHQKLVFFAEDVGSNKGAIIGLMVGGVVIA
Experimental: Surface Plasmon Resonance (SPR) is a sensitive surface analysis technique that detects changes in dielectric constant caused by molecules adsorbed on heavy metal films. In this study, the 1-(3-Dimethylaminopropyl)-3-ethylcarbodiimide hydrochloride (EDC) and N-Hydroxy succinimide (NHS) in the coupling kit were, respectively, dissolved in 1 mL of activation buffer, divided into 10 parts, 100 μL/part, and stored at −20°C for later use. Before the experiment, first install the CM5 chip in the machine and wash it with HBS-EP buffer 3 times. […] After the experiment is over, use the Evaluation software to analyze the results, and use Flow Cell2 to subtract the background signal of channel 1 as the experimental result. The 1:1 binding method is used for fitting calculation and analysis of affinity parameters: binding rate constant ka (1/Ms), dissociation rate constant kd (1/s) and equilibrium dissociation constant KD (M), KD = kd/ ka, the smaller the KD value, the stronger the affinity.

PC12 cells [4] = conditions: CCK-8, co-incubated with Aβ1–42 72 h
Experimental: Rat adrenal pheochromocytoma (PC12) cells were donated by Zhengzhou University School of Basic Medicine (#CRL-1721; RRID: CVCL-0481) in DMEM containing 10% fetal bovine serum, 1% penicillin and 1% streptomycin, culture in a cell incubator with 5% CO2 and 37°C, and passage once every 3 days.
Add 10 μL of CCK-8 solution to each well and continue to incubate for 2 h. Add 10 μL of CCK-8 solution to each well and continue to incubate for 2 h. The wells with normal DMEM medium and cell solution were used as the control group. The wells with 100 μL DMEM medium and 10 μL CCK-8 solution but no cells were used as the blank control, and the absorbance was measured at 450 nm.

apoptosis caused by Aβ = conditions: ref Hadipour et al., 2020; cited from earlier work
Text: Abnormally precipitated Aβ in amyloid plaques becomes one of the hallmark proteins of brain nerve damage in AD patients, and promotes the deterioration of AD. The accumulation of Aβ protein is caused by the interaction between the hydrophobic center and the C-terminal molecule ([Kapadia et al., 2021]). At present, the development of anti-Aβ aggregation compounds is a promising approach in the treatment of AD, and many clinical trials are ongoing.

[5] = peptide 50 μM, Aβ1–42 25 μM, 37°C, 24 h, ThT
[6] = peptide 50 μM, Aβ1–42 25 μM, 37°C, 24 h, n = 5 mean

## KLVFFAE [amyloid β-sheet mimics ; KLVFFAE (Aβ16–22)]
Aβ aggregation
  Aβ aggregation and toxicity: antagonizing Aβ protein aggregation and reducing Aβ toxicity

## QKLVFF
Aβ aggregation; ref Findeis et al., 1999
  Formation of Aβ fibers: inhibiting the formation of Aβ fibers

## Ac-KQKLLLFLEE-NH2
Aβ1–42 oligomerization; co-assembles with mature Aβ1–42 fibrils
  Aβ1–42 oligomerization: effectively inhibit Aβ1–42 oligomerization
Aβ1–42 oligomerization
  Self-assembly: form amyloid fibrils

## Ser-Leu-Lys-Pro [SLKP, tetrapeptide]
[1]
  Neurite growth: promoted significant neurite growth
  Neuroprotection against Aβ-mediated toxicity: significant neuroprotection against Aβ-mediated toxicity

## LFFFAED [amyloid β-sheet mimics ; LFFFAED (Aβ17–23)]
Aβ aggregation
  Aβ aggregation and toxicity: antagonizing Aβ protein aggregation and reducing Aβ toxicity

## pituitary adenylate cyclase activating polypeptide [PACAP]
PC12 cells [2]; ref Onoue et al., 2002
  Aβ-induced cell death in PC12 cells: attenuates Aβ-induced cell death in PC12 cells by increasing cAMP
  Caspase-3: inactivation of apoptotic factor (caspase-3)

## CC(=O)N[C@@H](Cc1ccc(O)cc1)C(=O)N[C@H](C(=O)N[C@@H](CCCNC(=N)N)C(=O)N[C@@H](Cc1c[nH]cn1)C(=O)N[C@@H](Cc1c[nH]cn1)C(=O)N[C@@H](Cc1c[nH]cn1)C(=O)N[C@@H](Cc1ccc(O)cc1)C(=O)N[C@H](C(=O)N[C@@H](CCCNC(=N)N)C(=O)N[C@@H](Cc1c[nH]cn1)C(=O)N[C@@H](Cc1c[nH]cn1)C(=O)N[C@@H](Cc1c[nH]cn1)C(N)=O)C(C)C)C(C)C [P9] (Ac-YVRHHHYVRHHH-NH2)
PC12 cells [3]
  Cell viability at 6.25 μM: began to decrease significantly (p < 0.05)
  Cell viability at 25, 50, 100 and 200 μM: decreased significantly, with extremely significant differences (p < 0.01)
Aβ1–42 aggregation; [5]
  Inhibitory effect on Aβ aggregation: no inhibitory effect on Aβ aggregation
Aβ1–42 aggregation; [6]
  ThT fluorescence intensity vs Aβ group: increased, but the difference is not statistically significant (p > 0.05)
Aβ1–42
  Kd: 14 µM
  Binding ability ranking by KD: the weakest
  Binding phase of SPR kinetic curve: the curve rises steadily, and it takes a long time to reach saturation
  Dissociation phase of SPR kinetic curve: relatively slow in the dissociation phase

## CC(=O)N[C@@H](Cc1ccc(O)cc1)C(=O)N[C@H](C(=O)N[C@@H](CCCNC(=N)N)C(=O)N[C@@H](Cc1c[nH]cn1)C(=O)N[C@@H](CC(=O)O)C(=O)N[C@@H](CC(C)C)C(=O)N[C@@H](Cc1ccc(O)cc1)C(=O)N[C@H](C(=O)N[C@@H](CCCNC(=N)N)C(=O)N[C@@H](Cc1c[nH]cn1)C(=O)N[C@@H](CC(=O)O)C(=O)N[C@@H](CC(C)C)C(N)=O)C(C)C)C(C)C [P12] (Ac-YVRHDLYVRHDL-NH2)
PC12 cells [3]
  Cell viability at 6.25 μM: significant effect on the viability of PC12 cells at 6.25 μM (p < 0.05)
Aβ1–42 aggregation; [5]
  Inhibitory effect on Aβ aggregation: no inhibitory effect on Aβ aggregation
Aβ1–42 aggregation; [6]
  ThT fluorescence intensity vs Aβ group: increased, but the difference is not statistically significant (p > 0.05)
Aβ1–42
  Kd: 0.327 µM
  Binding ability ranking by KD: the strongest
  Binding phase of SPR kinetic curve: rises rapidly at the beginning of binding and reaches saturation in a short time
  Dissociation phase of SPR kinetic curve: the curve drops rapidly and the dissociation is completed

## CC(=O)N[C@@H](Cc1ccc(O)cc1)C(=O)N[C@H](C(=O)N[C@@H](CCCNC(=N)N)C(=O)N[C@@H](Cc1c[nH]cn1)C(=O)N[C@@H](CC(C)C)C(=O)N[C@@H](CCCCN)C(=O)N[C@@H](Cc1ccc(O)cc1)C(=O)N[C@H](C(=O)N[C@@H](CCCNC(=N)N)C(=O)N[C@@H](Cc1c[nH]cn1)C(=O)N[C@@H](CC(C)C)C(=O)N[C@@H](CCCCN)C(N)=O)C(C)C)C(C)C [P21] (Ac-YVRHLKYVRHLK-NH2)
PC12 cells [3]
  Cell viability at 25 μM: significantly reduced at 25 μM (p < 0.05)
  Toxicity to PC12 cells at 50 μM: less toxic to PC12 cells at a concentration of 50 μM
PC12 cells [4]; after ratio 1:1, increasing P21 (1:2, 1:4)
  Cell viability at ratios above 1:1 (1:2, 1:4): cell viability continued to increase
PC12 cells [4]; ratio 1:4
  Cell viability at ratio 1:4: reaching the maximum at 1:4, which was close to the normal level
Aβ1–42 aggregation; incubated with Aβ1–42 at a ratio of 1:1, ThT, listed as YVRHLKYVRHLK
  Inhibitory effect on formation of Aβ1–42 aggregates at ratio 1:1: significant inhibitory effect on the formation of Aβ1–42 aggregates when incubated with Aβ1–42 at a ratio of 1:1 (p < 0.05)
Aβ1–42 aggregation; [5]
  Inhibitory effect on Aβ aggregation: strong inhibitory ability on Aβ aggregation; also recorded: good inhibitory effect on the protein aggregation of Aβ1–42
Aβ1–42 aggregation; peptide 50 μM, Aβ1–42 25 μM, 37°C, 24 h, ThT, n = 5 mean, Aβ alone = 100% fluorescence
  Inhibition of Aβ1–42 aggregation: 100%
Aβ1–42 aggregation; [6]
  ThT fluorescence intensity vs Aβ group: significantly lower than that of the Aβ group (p < 0.05)
Aβ1–42
  Kd: 53.8 µM
  Binding phase of SPR kinetic curve: rises rapidly at the beginning, but slowly reaches saturation in the following time, and the binding rate is faster
  Dissociation phase of SPR kinetic curve: dissociates relatively quickly

## CC(C)=CCC[C@@H](C)[C@H]1CC[C@@]2(C)C3=C(CC[C@]12C)[C@@]1(C)CC[C@H](O)C(C)(C)[C@@H]1CC3 [lanosterol]
PC12 cells [2]; ref Zhou et al., 2019
  Aβ-induced cytotoxicity in PC12 cells: reduce the Aβ-induced cytotoxicity in PC12 cells

## H2N-KLVFF (4-I) -CONH2 [iodinated KLVFF]
Aβ aggregation; 10 μM peptide, 10 μM Aβ, 1:1, ref Khalili Samani and Mofid, 2020
  Anti-aggregation activity vs other halogenated peptides: show the best resistance compared to other halogenated peptides

## CC(=O)N[C@@H](Cc1ccc(O)cc1)C(=O)N[C@H](C(=O)N[C@@H](CCCNC(=N)N)C(=O)N[C@@H](Cc1c[nH]cn1)C(=O)N[C@@H](CO)C(=O)N[C@H](C(=O)N[C@@H](Cc1ccc(O)cc1)C(=O)N[C@H](C(=O)N[C@@H](CCCNC(=N)N)C(=O)N[C@@H](Cc1c[nH]cn1)C(=O)N[C@@H](CO)C(=O)N[C@H](C(N)=O)C(C)C)C(C)C)C(C)C)C(C)C [P11] (Ac-YVRHSVYVRHSV-NH2)
PC12 cells [3]
  Cell viability at 3.125 μM: cell viability began to decrease significantly at low concentration (3.125 μM) of P11 (p < 0.05)
Aβ1–42 aggregation; [5]
  Inhibitory effect on Aβ aggregation: certain inhibitory ability on Aβ aggregation
Aβ1–42 aggregation; [6]
  ThT fluorescence intensity vs Aβ group: decreased, but the difference was not statistically significant (p > 0.05)
Aβ1–42
  Kd: 20.5 µM
  Binding phase of SPR kinetic curve: the curve rises steadily, and it takes a long time to reach saturation
  Dissociation phase of SPR kinetic curve: relatively slow in the dissociation phase

## CC(C)=CCC/C(C)=C/CC/C(C)=C/CC/C(C)=C/CC1=C(C)C(=O)c2ccccc2C1=O [vitamin K2]
Apoptosis caused by Aβ
  Apoptosis caused by Aβ accumulation: significantly reduced
  Ratio of Bax/Bcl-2: decreased
